The text below walks through data of ChEMBL document CHEMBL1201862, “PubChem BioAssay data set” (2004).

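Grown in 96-well plates, cells were treated for 48 hours with each compound at five concentrations. Insufficient inhibition: endpoint recorded as highest concentration tested. Here, GI50 denotes the concentration required for 50% inhibition of growth.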 Active and inactive are the calls of the source. Rule as the data show it: active = GI50 up to about 1.1 µM and inactive = higher. A value given as a limit tells only on which side of the number the result lay.

Test systems include HCT-15; HCC 2998; BT-549; CCRF-CEM; CAKI-1; A549; HCT-116; SN12C; OVCAR-8; K562; HT-29; U-251; SF-268; NCI-H522; UACC-62; UO-31; OVCAR-5; MOLT-4; NCI-H226; SW-620.
Common to all, as to test: NCI anticancer screen, dose series, 48 h

On to `COc1ccccc1NCc1nnc(CCCCCCCCc2nnc(CNc3ccccc3OC)o2)o1`, for which the GI50 in the assay with HCT-15 is greater than 100 µM; in the assay with HCC 2998, > 100 µM (inactive); with BT-549, > 100 µM (inactive); in the assay on CCRF-CEM it was > 100 µM (inactive); with CAKI-1, > 100 µM (inactive); in the assay on A549, > 100 µM (inactive). In addition, the GI50 with HCT-116, in the assay with SN12C, with OVCAR-8, with K562, in the assay on HT-29 and with U-251 was > 100 µM (inactive) each time. Besides, the GI50 in the assay with SF-268, in the assay on NCI-H522, in the assay on UACC-62, in the assay on UO-31, in the assay with OVCAR-5 and in the assay with MOLT-4 was > 100 µM (inactive) each time.

Consider `O=C1CC2(CCN(Cc3ccccc3)CC2)C(=O)N1N1CCCCC1`, for which the GI50 was greater than 100 µM with HCT-15; > 100 µM (inactive) in the assay on NCI-H226; > 100 µM (inactive) with BT-549; > 100 µM (inactive) in the assay with CAKI-1; > 100 µM (inactive) with A549; > 100 µM (inactive) in the assay with HCT-116. The GI50 in the assay with SN12C, in the assay on OVCAR-8, in the assay on SW-620, in the assay on K562, with HT-29 and in the assay on U-251 was > 100 µM (inactive) throughout. Moreover, the GI50 with SF-268, in the assay with NCI-H522, with UACC-62, in the assay on UO-31, in the assay with OVCAR-5 and in the assay on MOLT-4 was > 100 µM (inactive) each time.

For the compound `COC(=O)C1C(OS(=O)(=O)O)CCC2CN3CCc4c([nH]c5ccccc45)C3CC21` (configuration not stated), the GI50 in the assay with HCT-15 is greater than 100 µM; with NCI-H226, > 100 µM (inactive); in the assay on BT-549 it was > 100 µM (inactive); in the assay with CCRF-CEM, > 100 µM (inactive); in the assay with CAKI-1, > 100 µM (inactive); in the assay with A549 it was > 100 µM (inactive). Moreover, the GI50 in the assay with HCT-116, in the assay with SN12C, in the assay on OVCAR-8, in the assay with SW-620, in the assay with K562 and in the assay on HT-29 was > 100 µM (inactive) in each case. The GI50 in the assay on U-251, with SF-268, in the assay on NCI-H522, in the assay with UACC-62, in the assay with UO-31 and in the assay with OVCAR-5 was > 100 µM (inactive) throughout. Further, the GI50 in the assay with MOLT-4 is > 100 µM (inactive).

For `C#C[C@]1(O)CC[C@H]2[C@@H]3CCC4=C/C(=N/CCOC(=O)c5cccc6c(=O)c7ccccc7[nH]c56)CC[C@@H]4[C@H]3CC[C@@]21C`, the GI50 in the assay on HCT-15 is 45 µM; in the assay on NCI-H226 it was 76.2 µM (inactive); in the assay on BT-549, 32.3 µM (inactive); in the assay on CCRF-CEM, 35.7 µM (inactive); in the assay with CAKI-1, 51.3 µM (inactive); in the assay with A549, 41.7 µM (inactive). For the same compound, the GI50 with HCT-116 is 42.9 µM (inactive); with SN12C it was 74.5 µM (inactive); in the assay on OVCAR-8 it was 21 µM (inactive); with SW-620, 45.2 µM (inactive); in the assay on K562 it was 36.4 µM (inactive); with HT-29 it was 64.3 µM (inactive). Also, the GI50 in the assay on U-251 was 16.4 µM (inactive); with SF-268 it was 53.6 µM (inactive); with NCI-H522, 31.4 µM (inactive); with UACC-62, 36.8 µM (inactive); with UO-31, 37.8 µM (inactive); with OVCAR-5, > 100 µM (inactive). Also, the GI50 with MOLT-4 was 25.9 µM (inactive).

As for `CC1CC(=O)Nc2nc3ccccc3n21` (configuration not stated), the GI50 in the assay with HCT-15 is greater than 100 µM; with NCI-H226 it was > 100 µM (inactive); in the assay with BT-549, > 100 µM (inactive); in the assay with CCRF-CEM, > 100 µM (inactive); in the assay with CAKI-1 it was > 100 µM (inactive); in the assay on A549, > 100 µM (inactive). Besides, the GI50 in the assay on HCT-116, in the assay with OVCAR-8, with SW-620, in the assay with K562, with HT-29 and in the assay with U-251 was > 100 µM (inactive) in each case. Also, the GI50 in the assay on SF-268, with NCI-H522, in the assay on UACC-62, with UO-31, in the assay on OVCAR-5 and in the assay with MOLT-4 was > 100 µM (inactive) each time.

As for `COc1cc(S(=O)(=O)Nc2ccc(-c3csc(/N=C\c4cccc(Oc5ccccc5)c4)n3)cc2)ccc1Cl`, the GI50 in the assay on HCT-15 is 35.6 µM; with NCI-H226, 47.5 µM (inactive); in the assay with BT-549, 32.7 µM (inactive); in the assay with CCRF-CEM, 32 µM (inactive); with CAKI-1, 74.8 µM (inactive); with A549 it was 4.62 µM (inactive). The GI50 in the assay on HCT-116 is 14.6 µM (inactive); with SN12C it was 25.1 µM (inactive); with OVCAR-8 it was 25.6 µM (inactive); in the assay on SW-620, 40.3 µM (inactive); with K562, 22.6 µM (inactive); in the assay with HT-29, 9.75 µM (inactive). Also, the GI50 in the assay on SF-268 is 34.6 µM (inactive); with NCI-H522, 26.1 µM (inactive); in the assay on UACC-62, 6.44 µM (inactive); with UO-31, 29.9 µM (inactive); in the assay with OVCAR-5, 26.3 µM (inactive); with MOLT-4, 23 µM (inactive).

As to `COc1ccc(C(=O)Cn2c(C(=O)/C=C/c3ccco3)nc3ccccc32)cc1`, the GI50 in the assay with HCT-15 is 33.3 µM; with HCC 2998 it was 16.6 µM (inactive); in the assay on NCI-H226 it was 50.9 µM (inactive); in the assay with BT-549 it was 34.4 µM (inactive); with CCRF-CEM, 25.1 µM (inactive); in the assay on A549, 42.8 µM (inactive). The GI50 with HCT-116 was 29.3 µM (inactive); in the assay with SN12C, 39.1 µM (inactive); in the assay on SW-620, 31.4 µM (inactive); in the assay with K562 it was 22.2 µM (inactive); in the assay on HT-29, 36.6 µM (inactive); in the assay on U-251 it was 32.7 µM (inactive). Further, the GI50 with SF-268 was 24.5 µM (inactive); in the assay on UACC-62, 27.4 µM (inactive); in the assay with UO-31, 31.6 µM (inactive); in the assay with OVCAR-5, > 100 µM (inactive); in the assay on MOLT-4, 15.8 µM (inactive).

For the compound `COc1cc2c(c(O)c1O)C(=O)C1CCC(=O)N1C2c1cccc2ccccc12` (configuration not stated), the GI50 in the assay with HCT-15 was greater than 50 µM; in the assay with NCI-H226 it was > 50 µM (inactive); with BT-549, > 50 µM (inactive); in the assay on CCRF-CEM it was > 50 µM (inactive); with A549, 30.3 µM (inactive); in the assay on HCT-116 it was > 50 µM (inactive). In addition, the GI50 with SN12C, in the assay on OVCAR-8, in the assay on SW-620, in the assay with K562, in the assay with HT-29 and with U-251 was > 50 µM (inactive) throughout. Besides, the GI50 with SF-268 was > 50 µM (inactive); in the assay with NCI-H522, > 50 µM (inactive); in the assay on UACC-62 it was 49.9 µM (inactive); with UO-31, > 50 µM (inactive); in the assay with OVCAR-5, > 50 µM (inactive); with MOLT-4 it was > 50 µM (inactive).

As to `CN(C)CCCNc1ccc2nnn3c4ccc(OC(=O)c5ccc([N+](=O)[O-])cc5)cc4c(=O)c1c23`, the GI50 in the assay on HCT-15 was 2.72 µM; with HCC 2998 it was 5.64 µM (inactive); with BT-549, 16.4 µM (inactive); with CCRF-CEM it was 0.849 µM (active); in the assay with CAKI-1, 0.649 µM (active); with A549, 1.28 µM (inactive). In addition, the GI50 in the assay on HCT-116 is 1.51 µM (inactive); with SN12C, 3.05 µM (inactive); in the assay on OVCAR-8 it was 2.26 µM (inactive); in the assay on SW-620, 2.32 µM (inactive); in the assay with K562 it was 2.86 µM (inactive); with HT-29, 2.55 µM (inactive). The GI50 was 4.58 µM (inactive) with U-251; 4.09 µM (inactive) with SF-268; 1.32 µM (inactive) with NCI-H522; 15.9 µM (inactive) in the assay with UACC-62; 4.67 µM (inactive) in the assay on UO-31; 11.5 µM (inactive) with OVCAR-5. Also, the GI50 in the assay on MOLT-4 is 0.408 µM (active).

As for `CCCCCCCCCCCCC(O)C(=O)O` (configuration not stated), the GI50 with HCT-15 is greater than 100 µM; in the assay with HCC 2998 it was > 100 µM (inactive); in the assay on BT-549 it was > 100 µM (inactive); in the assay on CCRF-CEM, > 100 µM (inactive); in the assay with CAKI-1 it was > 100 µM (inactive); in the assay with A549, > 100 µM (inactive). Besides, the GI50 with HCT-116, with SN12C, in the assay with OVCAR-8, in the assay with SW-620, with K562 and in the assay on HT-29 was > 100 µM (inactive) each time. Moreover, the GI50 with U-251, in the assay with NCI-H522, in the assay on UACC-62, in the assay on UO-31, in the assay on OVCAR-5 and in the assay on MOLT-4 was > 100 µM (inactive) each time.

With `CCOC(=O)C1C=C1C(C)(C)O` (configuration not stated), the GI50 with HCT-15 was greater than 10 µM; in the assay with NCI-H226 it was > 10 µM (inactive); with BT-549, > 10 µM (inactive); in the assay on CCRF-CEM it was > 10 µM (inactive); with A549, > 10 µM (inactive); in the assay on SN12C it was > 10 µM (inactive). The GI50 in the assay on OVCAR-8, in the assay on SW-620, in the assay on K562, in the assay with HT-29, in the assay with U-251 and in the assay on SF-268 was > 10 µM (inactive) in each case. For the same compound, the GI50 in the assay on UO-31, in the assay with OVCAR-5 and in the assay with MOLT-4 was > 10 µM (inactive) in each case.
